The nature of this data set: Anion-exchange HPLC of [33P]-labeled products of PPIP5K2-mediated phosphorylation (relative polarity). Type of data set: physicochemical. The following applies: PartiSphere SAX column, NH4H2PO4 gradient pH 4.0; elution order 5PA-IP5 < 5PCF2Am-IP5 < 5PCP-IP5 < 5PCF2P-IP5 < 5PP-IP5. An excerpt:
Lastly, we also developed a protocol by which we can infer the relative polarities of each of the analogs. […] As shown above, 5PA-IP5 and the other analogs each bind in potentially productive orientations in which the 1-phosphate is presented to the active site. Therefore, we attempted to radiolabel each of the analogs by incorporation of [33]Pi from [33]P-γ-ATP, with the objective of resolving each of the [33]P-labeled products by anion-exchange HPLC. We reasoned that this assay could provide an empirical comparison of the relative degree of acidity of each reaction product - and more instructively - the substrates themselves. It should be emphasized that this experiment cannot inform on the relative rates of phosphorylation, in large part because the experimental protocol (low mass levels of high-specific radioactivity of [33]P-γ-ATP) are not appropriate for biologically-relevant kinetic determinations.
Figure 6 HPLC analysis of the products of PPIP5K-mediated phosphorylation of 5PP-IP5 and the various analogs. […]
Kinase activity was studied at 37°C by incubating 700 ng PPIP5K2^1-366 separately with each individual 10 μM test compound and 50 μM ATP plus 60,000 CPM of [^33P-γ]ATP for 30 mins. Assays were quenched with 0.2 volumes of 2 M perchloric acid, neutralized, and [^33P]-labeled products were analyzed by ion-exchange HPLC, using a 4.6 × 125 mm, 5 μm PartiSphere SAX column. […]

The record followed here is article PMC7615343, “Fluorination Influences the Bioisostery of Myo-Inositol Pyrophosphate Analogs” (Chemistry (Weinheim an der Bergstrasse, Germany), 2023).

Regarding `O=P(O)(O)O[C@H]1[C@@H](OP(=O)(O)O)[C@H](OP(=O)(O)O)[C@@H](OP(=O)(O)C(F)(F)P(=O)(O)O)[C@H](OP(=O)(O)O)[C@H]1OP(=O)(O)O` [5PCF2P-IP5], the “Relative HPLC elution of phosphorylated product (protonation state / global polarity compared with 5PP-IP5)” value is recorded as “most closely resembles the natural molecule with regards to its protonation state”.
